Data reported in patent US20040142888A1, “Modulators of RabGGT and methods of use thereof” (priority 2002, published 2004).
Where two headings read alike, the source gives them in different places.

How the values were obtained:
[1] = target: Farnesyl Transferase (FT) (Homo sapiens, UniProt P49354+P49356); test: Biochemical assay for inhibition of farnesyl transferase (FT)
Experimental: Biochemical assays for inhibition of FT were performed as described by Mann et al. (1995, Drug Dev. Res. 34: 121) with the modifications described by Ding et al. (1999, J. Med. Chem., 42:5241)

[2] = system: HCT-116 human colon tumor cells; test: Compound-induced apoptosis in HCT-116 human colon tumor cells (microscopy for morphological markers); assay type: cell-based
Experimental: HCT-116 human colon tumor cells obtained from the American Type Culture Collection (ATCC) were grown in McCoy's 5A culture medium with 10% heat inactivated FBS, 1× penicillin/streptomycin, and 25 mM HEPES, in an incubator maintained at 37° C. with CO2 at 6-7% and humidity at 95%. Cells were treated with compounds using a dose range from 0.04 μM to 100 μM. After 48 hours they were examined by microscopy for signs of cell rounding, vaccuolation, and nuclear condensation. These are morphological markers associated with apoptosis, and are consistent with results obtained by performing an assay for nucleosomal DNA, or a TdT-mediated dUTP nick end labeling (TUNEL) assay.
The concentrations cited are the minimal concentration required to induce these morphological changes in 50% of the treated cells.

[3] = target: T1, rat RabGGT (Rattus norvegicus, UniProt Q08602+Q08603); test: RabGGT filter binding assay: transfer of (3H)geranylgeranyl from 3H-GGPP to recombinant Rab3A; assay type: biochemical; settings: for IC90/IC50: RabGGT inhibition; for RabGGT inhibition: rat RabGGT enzyme
T1 construct: purchased Calbiochem 345855; host or cells: Sf9/baculovirus
T1 sequence (Q08602 1-567): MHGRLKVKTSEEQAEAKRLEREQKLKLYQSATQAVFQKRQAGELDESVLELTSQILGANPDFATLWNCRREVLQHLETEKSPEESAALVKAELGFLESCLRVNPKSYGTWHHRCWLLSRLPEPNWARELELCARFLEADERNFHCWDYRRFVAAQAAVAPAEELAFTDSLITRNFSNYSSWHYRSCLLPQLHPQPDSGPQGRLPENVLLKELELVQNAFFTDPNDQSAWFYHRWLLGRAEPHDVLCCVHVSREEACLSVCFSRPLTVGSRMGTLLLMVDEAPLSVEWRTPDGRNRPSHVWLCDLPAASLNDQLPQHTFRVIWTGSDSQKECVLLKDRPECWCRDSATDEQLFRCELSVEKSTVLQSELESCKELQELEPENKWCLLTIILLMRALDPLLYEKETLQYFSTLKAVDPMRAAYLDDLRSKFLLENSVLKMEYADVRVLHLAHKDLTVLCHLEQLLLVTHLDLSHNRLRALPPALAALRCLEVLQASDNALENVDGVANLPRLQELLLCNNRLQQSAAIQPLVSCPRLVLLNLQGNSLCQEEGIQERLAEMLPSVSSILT
T1 sequence (Q08603 1-331): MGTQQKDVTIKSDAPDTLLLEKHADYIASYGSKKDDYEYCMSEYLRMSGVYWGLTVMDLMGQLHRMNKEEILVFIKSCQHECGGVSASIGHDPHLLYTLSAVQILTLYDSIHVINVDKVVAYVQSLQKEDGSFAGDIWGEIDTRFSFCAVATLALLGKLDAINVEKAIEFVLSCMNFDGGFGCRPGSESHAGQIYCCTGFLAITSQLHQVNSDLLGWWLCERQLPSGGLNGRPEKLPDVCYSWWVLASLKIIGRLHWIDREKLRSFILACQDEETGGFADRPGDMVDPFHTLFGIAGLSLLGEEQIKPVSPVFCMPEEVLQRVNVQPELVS
From the text: The effect of compounds 7A through 7T on RabGGT activity was quantified using a filter binding assay that measures the transfer of (3H) geranylgeranyl groups (GG) from all-trans-(3H)geranylgeranyl pyrophosphate (3H-GGPP) to recombinant Rab3A protein (Shen & Seabra, 1996, JBC, 271 :3692; Armstrong et al., 1996, Methods in Enzymology 257:30). Modifications to published protocols are noted explicitly below.
Recombinant rat RabGGT, expressed using the Sf9/baculovirus system, was purchased from Calbiochem (cat. no. 345855). Recombinant unprenylated human Rab3A was obtained from Panvera.(cat. no. P2173). Human REβ-1, expressed in Sf9 cells, was obtained from Calbiochem (cat. no. 554000). Tritium labeled geranylgeranyl pyrophosphate was purchased from Amersham Pharmacia Biotech (15 Ci/mmol). Unlabeled GGPP was purchased from Sigma (cat. no. G-6025).
The reaction buffer contained 50 mM HEPES pH7.4, 5 mM MgCl2, 1 mM DTT, 1 mM Nβ-40. Solutions of RabGGT, Rab3A, REP-1, and GGPP were prepared in this reaction buffer. Final protein concentrations in the reaction mixture were modified from the published protocols, with the standard reaction mixture containing 2 μM Rab3A, 0.2 μM REP-1, 5 μM unlabeled GGPP, 0.5 μM labeled GGPP, and 10-50 nM RabGGT in a total volume of 20 μl. The specific activity of (3H)GGPP used in the assay was 3000 dpm/pmol.
Compounds were prepared as 50 mM stocks in DMSO and diluted to give an appropriate concentration for the assay as a 20% DMSO stock. 2 μl of the diluted compound stock was added to a 20 μl reaction to give a final DMSO concentration of 2% in the assay.
The order of addition of reagents was altered from the published protocols. Reaction mixtures were prepared by sequentially adding Rab3A and REP-1 proteins to the reaction buffer, followed by compound and RabGGT enzyme to a volume of 18 μl. Reactions were initiated by the addition of 2 μl of a solution that contained unlabeled and labeled GGPP. After a 30 minute incubation at 37° C., 1 ml of stop solution (1 volume of concentrated HCl acid with 9 volumes of ethanol) was added and mixed. The solution was then incubated at room temperature for 1 hour to completely precipitate proteins.
The precipitate was collected by vacuum filtration using a vacuum filtration manifold (Millipore model 1225) onto 25 mm GF/A filters (Whatman) that were prewetted with ethanol. The tubes were rinsed twice with 1 ml ethanol which was also poured over the filters. Each filter was subsequently washed three times with 2 mls of ethanol per wash, dried under vacuum, and then put in scintillation vials. Four milliliters of scintillation fluid was added and the radioactivity was quantified on a scintillation counter. Several types of blank reactions were conducted including withholding the enzyme, the substrate, or the accessory protein REP-1, or replacing the compound solution with a 20% DMSO solution. For the substrate titration experiment, the equimolar amounts of Rab3A and REP-1 were mixed and preincubated for 30 min at room temperature before addition of the enzyme.
The data was analyzed by non-linear regression analysis methods using the program PRIZM (GraphPad Software, Inc.). Inhibition constants were obtained by analyzing the data using the one site competition equation provided by the software. FIG. 7 presents a typical data series obtained for compound 7B using these methods.

[4] = system: HCT116 cells; test: 3H-thymidine incorporation (proliferation) assay in HCT116 cells after siRNA treatment against RabGGT subunits; assay type: cell-based, human; set-up: concentration or dose not given beside the values; settings: 72 hours after siRNA/Lipofectamine 2000 treatment, average of three replicates
Experimental: HCT-116 human colon tumor cells obtained from the ATCC were grown in RPMI culture medium supplemented with 10% heat inactivated FBS, 1× penicillin/streptomycin, and 25 mM HEPES, in an incubator maintained at 37° C. with CO2 at 6% and humidity at 95%. HCT116 cells were plated in 96 well plates at 2000 cells/100 μl media per well and incubated for 24 hours before RNAi treatment. For treatment, a 2× solution of Lipofectamine 2000/siRNA complexes was generated for each individual siRNA as follows. The siRNA oligonucleotides (Xeragon; Huntsville Ala.) were diluted to a final concentration of 1 μM in Optimem serum-free media (Invitrogen; Carlsbad, Calif.) and incubated for 5 minutes at room temperature. The Lipofectamine 2000 reagent (Invitrogen; Carlsbad, Calif.) was diluted to 10 μg/ml in Optimem serum-free media and incubated for 5 minutes at room temperature. Equal volumes of the 1 μM siRNA oligonucleotides and the 10 μg/ml Lipofectamine 2000 were mixed together, giving a 5× stock of siRNA/Lipofectamine 2000 complexes. After incubation for 20 minutes at room temperature, 1.5 volumes of RPMI medium containing 10% heat inactivated FBS was added to the 5× stock, resulting in a 2× stock of siRNA/Lipofectamine 2000 complexes. For RNAi treatment, 100 μof the 2× stock of siRNA/Lipofectamine 2000 complexes was added to each well containing HCT116 cells, to give a final concentration of 1× siRNA/Lipofectamine 2000 complexes. Cells were incubated for 72 hours prior to the proliferation assay. Three replicates were performed for each siRNA treatment.
The effect of RNAi treatment directed against RabGGT subunits on cellular proliferation was assayed using a 3H-thymidine incorporation assay. The principle of this assay is as follows: During S-phase of the cell cycle, cells incorporate thymidine into the new strand of genomic DNA. Tritiated thymidine can be added to the culture medium and will be incorporated into genomic DNA in proportion to the number of rounds of DNA synthesis that occur. Incorporation can be quantified following lysis of the cells and removal of unincorporated nucleotides. RNAi-treated cells prepared as described above were assayed for 3H-thymidine uptake as follows. The cells were pulsed with 3H-thymidine by addition of 20 μl of a 44 μCi/ml solution of 3H-thymidine in RPMI to each well, to obtain a final concentration of 3H-thymidine of 4 μCi/ml. After incubation for 3 h at 37° C., the medium was removed and 50 μl of 0.25% trypsin in phosphate buffered saline (140 mM NaCl, 2.7 mM KCl, 10 mM Na2HPO4 and 1.8 mM KH2PO4, pH 7.4) was added. After 10 minutes, the contents of the wells were harvested onto a 96-well GF/C filter plate (Whatman; Clifton N.J.) using a Hewlett Packard Filtermate. The filter plate was washed 10 times with distilled water, then left to dry overnight. After the addition of 50 μl of Microscint-20 scintillation fluid (Perkin Elmer; Boston, Mass.) per well, the filter plates were sealed and the amount of radioactivity retained on the filter was determined by scintillation counting. The average of the three replicate samples is reported.

[5] = HCT-116, 48 h, HCT116 cells, 48 hours, minimal concentration inducing apoptotic morphological changes in 50% of treated cells, read-out: 50% APOPTOTIC
[6] = HCT-116, minimum concentration required to achieve apoptosis of 50% of the HCT116 cells (Table 7), read-out: HCT116 50% apoptosis
[7] = HCT-116, minimum concentration required to achieve apoptosis of 50% of the HCT116 cells (Table 8), read-out: HCT116 50% apoptosis
[8] = recombinant rat RabGGT, Rab3A, REP-1, 30 minute at 37° C.

IC50 [1] [nM]	IC90 [1] [nM]	EC50 [2, 5] [nM]	EC50 [2, 6] [nM]	EC50 [2, 7] [nM]	IC90/IC50 [3]	IC50 ([3]; Table 7) [nM]	IC50 [3, 8] [nM]	IC90 [3, 8] [nM]	RabGGT inhibition [3]	IC90 ([3]; Table 7) [nM]	Molecule	3H-thy incorp. % of control [4] [%]
0.7	9	3700	3300	3300	12	25	25	309	–	–	Cn1cc(S(=O)(=O)N(Cc2ccsc2)C2Cc3cc(C#N)ccc3N(Cc3cncn3C)C2)cn1 (stereo not drawn) [Compound 7N]	–
1.4	8	10000	10000	10000	19	58	58	1120	–	–	C=C(C)CN(C1Cc2cc(C#N)ccc2N(Cc2cncn2C)C1)S(=O)(=O)N1CC=CC1 (stereo not drawn) [Compound 7O]	–
0.7	4	25000	25000	25000	–	84	84	2160	–	–	Cn1cncc1CN1CC(N(Cc2ccsc2)S(=O)(=O)c2ccccn2)Cc2cc(C#N)ccc21 (stereo not drawn) [Compound 7P]	–
0.6	6	30000	30000	30000	–	47	47	2300	–	–	Cn1cnc(S(=O)(=O)N(Cc2ccsc2)C2Cc3cc(C#N)ccc3N(Cc3cncn3C)C2)c1 (stereo not drawn) [Compound 7Q]	–
1.5	9	30000	30000	30000	19	541	541	10100	weaker inhibitors	–	Cn1cncc1CN1CC(N(CC(=O)OC(C)(C)C)S(=O)(=O)c2ccccn2)Cc2cc(C#N)ccc21 (stereo not drawn) [Compound 7R]	–
15.5	255	50000	50000	50000	19	73	73	1400	–	–	Cn1cncc1CN1CC(NS(=O)(=O)c2ccccn2)Cc2cc(C#N)ccc21 (stereo not drawn) [Compound 7S]	–
3.7	48	90000	90000	90000	>10	1430	1430	> 15000	weaker inhibitors	> 15000	Cc1nc(CN(C2Cc3cc(C#N)ccc3N(Cc3cncn3C)C2)S(=O)(=O)c2ccccn2)cs1 (stereo not drawn) [Compound 7T]	–
–	–	–	–	–	–	–	–	–	–	–	Alpha-1: siRNA against human RabGGT-alpha, coding bases 268-291, SEQ ID NO:01 / NO:02 (chain 1 GGCAGAACUGGGCUUCCUGTT; chain 2 CAGGAAGCCCAGUUCUGCCTT; chemistry not given here)	33
–	–	–	–	–	–	–	–	–	–	–	Alpha-2: siRNA against human RabGGT-alpha, coding bases 628-651, SEQ ID NO:03 / NO:04 (chain 1 AGAGCUGGAGCUGGUGCAGTT; chain 2 CUGCACCAGCUCCAGCUCUTT; chemistry not given here)	17
